In ChEMBL document CHEMBL1129012, “Similarities and differences in the DNA binding/cleaving specificities and mechanisms of [SalenMn(III)]+ and [TMPPMn(III)]5+” (Bioorg Med Chem Lett, 1996):
Calls of active or inactive are those of the source. The rule behind the calls is not given here.

System: Nucleic Acid
Experiment: DNA binding/cleaving affinity was determined; Active
Format: nucleic-acid assay

Activity | Substance
Active | Complex of [SalenMn(III)]+ (Salen=N,N'-ethylenebis(salicylideneaminato))
Active | [TMPPMn(III)] 5+ (TMPP=meso-tetrakis(4-N-methylpyridiniumyl)porphyrinato))
